Results on four compounds are retold here after patent publication US11774442B2, “Molecule sensor systems” (priority 2016, dated 2023).

The structures appear in SMILES notation.

In one data set the test system is PcaV. Kind of data set: PcaV synthetic promoter/operator GFP reporter in E. coli. The class given is cell-based, Streptomyces coelicolor. The note with it: E. coli harboring PcaV plasmid, grown in supplemented medium. An excerpt: As an example, Streptomyces coelicolor harbors an aTF, PcaV (SC06704), a member of the MarR family, which relieves repression on its operator in the presence of 3,4-dihydroxybenzoic acid. When the intergenic region between PcaV and Pcal was cloned into position to promote the expression of GFP on a plasmid which can be maintained in E. coli, no GFP expression was observed even though no known protein was present which could bind the operator site. […] Upon the introduction of the PcaV protein under a constitutive promoter, the GFP expression was suppressed. […] See FIG. 1, FIG. 2, FIG. 3, FIG. 21.

Another data set concerns FapR. In words: FapR GFP reporter in E coli. The class given is cell-based, Staphylococcus aureus. The settings on record: increasing concentrations. An excerpt:
(§1) Staphylococcus aureus FapR responds to intracellular levels of malonyl-CoA. Cerulenin is an inhibitor of fatty acid biosynthesis and is known to increase the intracellular pool of malonyl-CoA at subtoxic concentrations.

The next data set has as its system E coli. Kind of data set: Toxicity in FapR chassis dose response (OD600 and fluorescence channels). Type of data set: cell-based. The settings on record: highest concentration.
Source text: as §1

The target in a further data set is T1, TtgR (Pseudomonas putida, UniProt Q88N29).
T1 construct: Wild type of TtgR; expressed in transfected cells; host or cells: E. coli
In words: TtgR-GFP sensor-reporter system in E. coli, response to naringenin. The class given is cell-based. The settings on record: TtgR-binding synthetic operator promoter. An excerpt: TtgR regulates the TtgABC efflux pump in Pseudomonas putida, and responds to antibiotics such as chloramphenicol (Teran, et al) as well as the flavanones such as naringenin (Raman, et al).
See FIG. 8, FIG. 9, FIG. 10, FIG. 11, FIG. 13.

A further data set concerns FadR. Type of data set: cell-based, Vibrio cholerae. The note with it: E coli; increased levels.

T1 sequence (Q88N29 whole entry): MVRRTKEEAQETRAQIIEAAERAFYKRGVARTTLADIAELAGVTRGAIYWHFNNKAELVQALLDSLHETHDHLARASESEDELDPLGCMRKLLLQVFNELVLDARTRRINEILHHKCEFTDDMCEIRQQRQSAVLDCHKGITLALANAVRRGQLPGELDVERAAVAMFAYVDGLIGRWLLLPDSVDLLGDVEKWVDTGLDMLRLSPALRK

In the case of `O=C(O)c1ccc(O)c(O)c1` [3,4-dihydroxybenzoic acid], the GFP expression result in the data set on PcaV is reported as “expression of GFP was observed”.
As for `C/C=C/C/C=C/CCC(=O)[C@H]1O[C@H]1C(N)=O` [cerulenin], the GFP reporter expression entry in the data set with FapR was “increased expression of a GFP reporter”. Also, the toxicity result in the data set with E coli was “toxicity at highest concentration”.
For `O=C1C[C@@H](c2ccc(O)cc2)Oc2cc(O)cc(O)c21` [naringenin], at TtgR, the GFP expression entry is “drive GFP expression”.
With `CCCCCCCC/C=C\CCCCCCCC(=O)O` [oleic acid], the GFP reporter expression entry with FadR is on record as “driving expression of a GFP reporter”.
